Data published in patent publication EP0326331B1, “Substituted quinolines and cinnolines” (Dow AgroSciences LLC, priority 1988, dated 1989).

Legend:
Type in all cases: in vivo
[1] = tested on: Puccinia recondita tritici (leaf rust); test: Test 1 greenhouse foliar spray screen, leaf rust on wheat; settings: Puccinia recondita, foliar, Test 1, foliar spray on wheat; disease control rating at 400 ppm / 100 ppm
[2] = tested on: southern armyworm (Spodopetra eridania Cramer); test: Mite/insect screen, SAW; settings: Spodoptera eridania, foliar, percent mortality, foliar spray on squash, read-out: SAW RESULTS %; for mortality at 200 ppm: rate 200 ppm; for mortality at 400 ppm: rate 400 ppm
Procedure, shortened: (§1)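 Percent mortality was scored after standard exposure periods, following spraying of leaves to runoff (both surfaces, 10 psi, 1 h drying) with water dilutions of compound in emulsifier-containing acetone/alcohol (50:50). Armyworms received excised treated leaves in dishes.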

[3] = tested on: Twospotted spider mites (Tetranychus urticae Koch); test: Mite/insect screen, SM; settings: for mortality at 200 ppm / mortality at 400 ppm: Tetranychus urticae, foliar, percent mortality, foliar spray on squash, read-out: SM RESULTS %; for mortality at 200 ppm: rate 200 ppm; for mortality at 400 ppm: rate 400 ppm; for activity as miticides: summary statement in the description
Procedure, shortened: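 Read-out: percent mortality after standard exposure periods. Test solutions were water dilutions of compound dissolved in acetone/alcohol (50:50) with emulsifier blends; leaves were sprayed to runoff on both surfaces and air-dried for one hour before exposure.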

[4] = tested on: Pseudoperonospora cubensis (downy mildew); test: Test 1 greenhouse foliar spray screen, downy mildew on squash; settings: Pseudoperonospora cubensis, foliar, Test 1, foliar spray on squash; disease control rating at 400 ppm / 100 ppm; read-out: DOWN MDEW
[5] = tested on: Pyricularia oryzae (rice blast); test: whole plant or invertebrate; settings: Pyricularia oryzae, foliar, read-out: RICE BLAST, Test 1, foliar spray on rice; disease control rating at 400 ppm / 100 ppm
[6] = tested on: Botrytis cinerea (gray mold); test: Test 1 greenhouse foliar spray screen, gray mold on grape berries; settings: Botrytis cinerea, foliar; Test 1, spray on grape berries; disease control rating at 400 ppm / 100 ppm
corn rootworm = test: Mite/insect screen, CRW; settings: percent mortality, read-out: CRW RESULTS %; for mortality at 12 ppm: CRW rate 12.00 ppm; for mortality at 24 ppm: CRW rate 24.00 ppm
Procedure, shortened: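 Corn rootworm mortality (%) was evaluated following standard exposure times. Test material was emulsified by dissolution in acetone/alcohol (1:1) containing sulfonate/nonionic emulsifier blends TOXIMUL R (23 g/L) and TOXIMUL S (13 g/L), and water-diluted to the indicated doses.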

[7] = tested on: melon aphids (Aphis gossypii Glover); test: Mite/insect screen, MA; settings: Aphis gossypii, foliar, percent mortality, foliar spray on squash, read-out: MA RESULTS %; for mortality at 200 ppm: rate 200 ppm; for mortality at 400 ppm: rate 400 ppm
Procedure, shortened: as §1

[8] = tested on: Erysiphe graminis tritici (powdery mildew); test: Test 1 greenhouse foliar spray screen, powdery mildew on wheat; settings: Blumeria graminis, foliar, Test 1, foliar spray on wheat; disease control rating at 400 ppm / 100 ppm; read-out: POWD MDEW

Compound | pest or weed control at 400 ppm [1] [%] | mortality at 200 ppm [2] [%] | mortality at 400 ppm [2] [%] | mortality at 200 ppm [3] [%] | mortality at 400 ppm [3] [%] | pest or weed control at 400 ppm [4] [%] | pest or weed control at 400 ppm [5] [%] | pest or weed control at 400 ppm [6] [%] | mortality at 12 ppm (corn rootworm) [%] | mortality at 24 ppm (corn rootworm) [%] | mortality at 200 ppm [7] [%] | mortality at 400 ppm [7] [%] | pest or weed control at 400 ppm [8] [%] | activity as miticides [3]
Cc1ccc(CCOc2ccnc3cc(Cl)ccc23)cc1 [Example 204, 7-chloro-4-[2-(4-methylphenyl)ethoxy]quinoline] | 20 to 89 | 0 | 100 | 0 | 0 | 20 to 89 | 0 to 19 | 0 to 19 | 0 | 0 | 0 | 50 | 20 to 89 | 
Cc1ccccc1CCOc1ccnc2c(F)cccc12 [Example 205, 8-fluoro-4-[2-(2-methylphenyl)ethoxy]quinoline] | 90 to 100 |  | 0 |  | 0 | 90 to 100 | 90 to 100 | 0 to 19 |  | 0 |  | 0 | 90 to 100 | 
CC(Cc1ccccc1)Oc1ccnc2c(F)cccc12 (centres unmarked) [Example 214, 8-fluoro-4-[1-(phenylmethyl)ethoxy]quinoline] | 20 to 89 |  | 0 |  | 0 | 90 to 100 | 90 to 100 | 0 to 19 |  | 0 |  | 0 | 20 to 89 | 
Clc1ccc(CCOc2ccnc3c(Br)cccc23)cc1 [Example 215, 8-bromo-4-[2-(4-chlorophenyl)ethoxy]quinoline] | 20 to 89 |  | 0 |  | 100 | 90 to 100 | 20 to 89 | 0 to 19 |  | 0 |  | 100 | 0 to 19 | 
Clc1ccccc1CCOc1ccnc2c(Cl)cccc12 [Example 216, 8-chloro-4-[2-(2-chlorophenyl)ethoxy]quinoline] | 90 to 100 |  | 0 |  | 0 | 90 to 100 | 90 to 100 | 0 to 19 |  | 100 |  | 0 | 90 to 100 | 
CC(C)c1ccccc1CCOc1ccnc2c(F)cccc12 [Example 217, 8-fluoro-4-[2-(2-(1-methylethyl)phenyl)ethoxy]quinoline] | 90 to 100 |  | 0 |  | 0 | 90 to 100 | 90 to 100 | 0 to 19 |  | 0 |  | 0 | 90 to 100 | 
Fc1cccc2c(OCCc3cccc(Sc4ccccc4)c3)ccnc12 [Example 218, 8-fluoro-4-[2-(3-(phenylthio)phenyl)ethoxy]quinoline] | 90 to 100 |  | 100 |  | 0 | 90 to 100 | 90 to 100 | 0 to 19 |  | 0 |  | 0 | 90 to 100 | 
Fc1cccc2c(OCCc3ccc(Br)cc3)ccnc12 [Example 223, 4-[2-(4-bromophenyl)ethoxy]-8-fluoroquinoline] | 90 to 100 | 0 | 0 | 0 | 0 | 0 to 19 | 90 to 100 | 0 to 19 | 80 | 0 | 80 | 100 | 90 to 100 | 
Clc1ccc(CCOc2ccnc3cc(Cl)ccc23)cc1 [Example 226, 7-chloro-4-[2-(4-chlorophenyl)ethoxy]quinoline] | 20 to 89 | 0 | 0 | 0 | 0 | 20 to 89 | 0 to 19 | 0 to 19 | 0 | 0 | 0 | 0 | 20 to 89 | 
Cc1cc(C)c(CCOc2ccnc3c(F)cccc23)c(C)c1 [Example 227, 8-fluoro-4-[2-(2,4,6-trimethylphenyl)ethoxy]quinoline] | 20 to 89 | 0 | 0 | 0 | 0 | 0 to 19 | 20 to 89 | 0 to 19 | 0 | 0 | 0 | 0 | 0 to 19 | 
CC(C)(C)c1ccc(CCOc2ccnc3cc(Cl)ccc23)cc1 [Example 231, 7-chloro-4-[2-(4-(t-butyl)phenyl)ethoxy]quinoline] | 0 to 19 | 0 | 0 | 90 | 40 | 0 to 19 | 0 to 19 | 0 to 19 | 0 | 0 | 0 | 50 | 20 to 89 | particularly excellent activity
CC(C)(C)c1ccc(CCOc2ccnc3cc(F)ccc23)cc1 [Example 232, 4-[2-(4-(t-butyl)phenyl)ethoxy]-7-fluoroquinoline] | 0 to 19 | 0 | 30 | 100 | 80 | 0 to 19 | 0 to 19 | 0 to 19 | 0 | 0 | 70 | 40 | 0 to 19 | particularly excellent activity
Fc1cccc2c(OCCc3ccccc3-c3ccccc3)ccnc12 [Example 237, 8-fluoro-4-[2-(1,1'-biphenyl)-2-yl-ethoxy]quinoline] | 20 to 89 | 0 | 0 | 0 | 100 | 0 to 19 | 90 to 100 | 0 to 19 | 0 | 0 | 0 | 0 | 90 to 100 | particularly excellent activity
FC(F)(F)c1ccc2c(OCCc3ccccc3)ccnc2c1 [Example 239, 4-(2-phenylethoxy)-7-(trifluoromethyl)quinoline] | 90 to 100 | 0 | 0 | 0 | 0 | 90 to 100 | 90 to 100 | 0 to 19 | 0 | 0 | 0 | 0 | 90 to 100 | 
Fc1ccc(CCOc2ccnc3c(Cl)cccc23)cc1 [Example 240, 8-chloro-4-[2-(4-fluorophenyl)ethoxy]quinoline] | 90 to 100 |  | 0 |  | 0 | 0 to 19 | 20 to 89 | 0 to 19 |  | 0 |  | 0 | 0 to 19 | 
